# Measured values reported in patent US20220288051A1, “METHODS FOR TREATING CANCER USING SERIAL ADMINISTRATION OF E3 UBIQUITIN LIGASE DEGRADERS” (Dana-Farber Cancer Institute, Inc., priority 2019, published 2022).
# Entries after “also recorded” stand apart in the source; their conditions may differ.
# Assays:
# [1] = test system: human MM.1S cells; experiment: Subcutaneous MM xenograft model; type: in vivo, NSG mice
# Experimental: i. Subcutaneous MM xenograft model: Luciferase-positive MM.1S cells (10×106 Luc-GFP-MM.1S in matrigel) were transplanted into the right flank of NSG mice (100 μL). […] Treatments were carried out daily for 8 days and tumor size assessed daily using calipers. Mice were culled when tumors reached 2000 mm3 or when moribund.
# [2] = test system: human MM cell lines; experiment: CTG / CS-BLI cell viability of human MM cell lines; type: cell-based
# Experimental: (§1) Cell viability and growth of human MM cell lines were assessed using CellTitre-Glo (CTG) assay (Promega, Madison, Wis.) per kit instructions, or CS-BLI as described (Delmore et al., 2011). Briefly, cells were seeded (5×10^3 cells/well) into 96- or 384-well opaque plates, in supplemented media (40 or 50 uL) and incubated for 24 h prior to addition of drug. For co-culture experiments, HS27A cells were pre-seeded (5×10^3 cells/well) into each well in media prior (24 h) to the addition of MM cells. At each time point (24 h, 48 h, and/or 72 h) CTG reagent (10% volume) was added to each well, and plates were read using a microplate reader (BioTek Synergy 2, BioTek, Winooski, Va.).
# [3] = test system: MM.1S cells; experiment: CTG viability of CRISPR-edited MM.1S pools tolerant to bortezomib or JQ1; type: cell-based, human; conditions: vs treatment-naive cells with the same sgRNA library
# Experimental: as §1
# iii. […] Following treatments, all cells were serially cultured without drug and allowed to regrow for as long as required to enable reseeding (60×10^6 cells per flask, 100 mL) and retreatment with individual drugs while maintaining ˜1000× coverage throughout. Concomitant with retreatment, remaining cells were frozen (−80° C.; 20% FBS/DMSO) for later analysis or assessed for drug resistance/sensitivity using CTG assays. Between treatments, and in order to maintain the health of cultures, dead cells were periodically removed using Ficoll centrifugation (1,500 rpm for 10-20 min). For all CRISPR drug treatment experiments, aliquots of MM.1S-Cas9+ cells transduced with the GeCKO(Sanjana et al., 2014; Shalem et al., 2014) or Brunello (Doench et al., 2016) sgRNA libraries were frozen immediately prior to experimentation to determine the baseline distribution of sgRNAs in the cell population.
smiles,measurement,setting,value
Cc1sc2c(c1C)C(c1ccc(Cl)cc1)=N[C@@H](CC(=O)NCCCCCCCCNC(=O)COc1cccc3c1C(=O)N(C1CCC(=O)NC1=O)C3=O)c1nnc(C)n1-2 (some centres unmarked) [dBET6],rate of tumor growth increase,"[1]; 30 mg/kg, QD, 8d, IP",significantly suppressed the rate of tumor growth increase
same,increase in overall survival,"[1]; 30 mg/kg, QD, 8d, p<0.05",10 days
same,survival,[1]; subcutaneous MM xenografts,prolongation of survival
same,tumor burden vs vehicle,[1]; subcutaneous MM.1S xenograft,significantly lower tumor burden
same,suppression of MM cell viability,"[2]; MM.1S, RPMI-8226, JJN3, 48 h, CTG or CS-BLI, vs JQ1",more pronounced suppression of MM cell viability than JQ1
same,in vitro anti-MM activity,"[2]; human MM cell lines, dBET6 compared to dBET1 or JQ1",more potent in vitro anti-MM activity of dBET6 compared to dBET1 or JQ1
same,loss of viability,"[2]; larger panel of human MM cell lines, 48 h",significant loss of viability in all lines tested
same,dBET6 sensitivity of pools tolerant to bortezomib or JQ1,[3],do not exhibit resistance to dBET6; also recorded: equal to or greater than treatment-naive cells
